From patent US10968178B2, “IP6K inhibitors” (TAKEDA PHARMACEUTICAL COMPANY LIMITED, priority 2017, dated 2021)

What was measured:
Format in all cases: biochemical
human IP6K3 = target: T1, human IP6K3 (Homo sapiens, UniProt Q96PC2); experiment: IP6K enzyme inhibitory assay (ADP-Glo Kinase Assay), human IP6K3; conditions: compound concentration 0.1 μM; read-out: ADP-Glo method inhibitory rate (%) human IP6K3
T1 construct: human IP6K3 (1-410) gene; made in house; host or cells: BL21 (DE3) Escherichia coli
T1 sequence (Q96PC2 1-410): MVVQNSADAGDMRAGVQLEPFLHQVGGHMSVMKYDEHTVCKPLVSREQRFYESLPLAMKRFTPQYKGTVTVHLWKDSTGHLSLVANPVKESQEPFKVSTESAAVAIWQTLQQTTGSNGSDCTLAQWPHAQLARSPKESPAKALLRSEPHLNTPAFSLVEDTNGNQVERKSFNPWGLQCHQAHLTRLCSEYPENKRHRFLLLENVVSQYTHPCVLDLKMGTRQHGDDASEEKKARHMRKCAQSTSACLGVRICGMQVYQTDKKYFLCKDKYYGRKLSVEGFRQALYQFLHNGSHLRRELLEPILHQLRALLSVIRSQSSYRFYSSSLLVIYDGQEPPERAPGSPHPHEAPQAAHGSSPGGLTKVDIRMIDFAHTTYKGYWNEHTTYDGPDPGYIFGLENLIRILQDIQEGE
Procedure: (§1) IP6K Enzyme Inhibitory Assay
(§2) Human IP6K3 enzyme was prepared by transducing human IP6K3 (1-410) gene into BL21 (DE3) Escherichia coli and purifying by Ni-NTA (nickel-nitrilotriacetic acid) affinity column. […] The enzymes were used after preservation at −70° C. The IP6K enzyme inhibitory activity of the test compound was measured by the following experiment method and using ADP-Glo™ Kinase Assay (manufactured by Promega). A test compound diluted with an assay buffer (20 mM HEPES (pH 7.5), 6 mM MgCl2, 0.01% Tween-20, 1 mM DTT) was first added by 2 μL to a 384 well plate. […] The IP6K enzyme solution diluted with the assay buffer was added by 2 μL to start the enzyme reaction. Incubation was performed at room temperature for a given time (120 min for rat IP6K3 alone, 60 min for others). After incubation at room temperature, ADP-Glo solution prepared according to the protocol of Promega was added by 3 μL to the 384 well plate and reacted at room temperature for 30 min. Thereafter, Kinase-Detection solution was added by 6 μL to the 384 well plate and reacted at room temperature for 60 min. After the reaction, the luminescence intensity was measured by a plate reader Envision (manufactured by PerkinElmer).

human IP6K2 = target: T2, human IP6K2 (Homo sapiens, UniProt Q9UHH9); experiment: IP6K enzyme inhibitory assay (ADP-Glo Kinase Assay), human IP6K2; conditions: compound concentration 0.1 μM; read-out: ADP-Glo method inhibitory rate (%) human IP6K2
T2 construct: human IP6K2 (1-426) gene; GST; made in house; host or cells: Sf-9 insect cells
T2 sequence (Q9UHH9 1-426): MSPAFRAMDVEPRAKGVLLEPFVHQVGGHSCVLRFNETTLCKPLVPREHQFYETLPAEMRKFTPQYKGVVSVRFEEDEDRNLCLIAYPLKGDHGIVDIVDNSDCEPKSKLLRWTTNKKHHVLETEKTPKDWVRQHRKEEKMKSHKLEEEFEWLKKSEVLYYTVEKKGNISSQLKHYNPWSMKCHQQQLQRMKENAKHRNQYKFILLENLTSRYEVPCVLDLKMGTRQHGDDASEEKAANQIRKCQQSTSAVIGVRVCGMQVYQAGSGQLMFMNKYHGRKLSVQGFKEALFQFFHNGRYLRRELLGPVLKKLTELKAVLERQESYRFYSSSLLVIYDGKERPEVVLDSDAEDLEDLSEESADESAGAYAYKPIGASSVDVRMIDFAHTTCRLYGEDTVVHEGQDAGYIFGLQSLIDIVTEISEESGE
Procedure: as §1, §2

human IP6K1 = target: T3, human IP6K1 (Homo sapiens, UniProt Q92551); experiment: IP6K enzyme inhibitory assay (ADP-Glo Kinase Assay), human IP6K1; conditions: compound concentration 0.1 μM; read-out: ADP-Glo method inhibitory rate (%) human IP6K1
T3 construct: human IP6K1 (1-441) gene; GST; made in house; host or cells: Sf-9 insect cells
Procedure: as §1, §2

T3 sequence (Q92551 whole entry): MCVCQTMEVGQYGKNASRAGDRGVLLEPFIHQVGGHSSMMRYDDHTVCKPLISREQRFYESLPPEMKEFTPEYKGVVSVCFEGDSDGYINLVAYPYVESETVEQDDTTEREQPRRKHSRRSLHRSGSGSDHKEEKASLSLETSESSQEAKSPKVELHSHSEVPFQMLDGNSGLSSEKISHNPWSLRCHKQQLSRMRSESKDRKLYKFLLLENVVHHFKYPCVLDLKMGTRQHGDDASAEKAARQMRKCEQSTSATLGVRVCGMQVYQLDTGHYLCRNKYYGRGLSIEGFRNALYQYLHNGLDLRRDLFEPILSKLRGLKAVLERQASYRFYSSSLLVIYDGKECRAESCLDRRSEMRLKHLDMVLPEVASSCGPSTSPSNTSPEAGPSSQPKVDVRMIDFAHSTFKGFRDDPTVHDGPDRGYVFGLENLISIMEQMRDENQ

inhibition at 0.1 µM (human IP6K3)	inhibition at 0.1 µM (human IP6K2)	inhibition at 0.1 µM (human IP6K1)	SMILES
95%	90%	88%	N#Cc1cc(O[C@H]2CC[C@@]3(CC2)C(=O)Nc2ccc(C(=O)O)cc23)ccc1Cl [Example 71, (1r,4r)-4-(4-chloro-3-cyanophenoxy)-2′-oxo-1′,2′-dihydrospiro[cyclohexane-1,3′-indole]-5′-carboxylic acid]
98%	98%	93%	O=C(O)c1ccc2c(c1)[C@]1(CC[C@@H](Oc3ccc(F)cc3Cl)CC1)C(=O)N2 [Example 68, (1r,4r)-4-(2-chloro-4-fluorophenoxy)-2′-oxo-1′,2′-dihydrospiro[cyclohexane-1,3′-indole]-5′-carboxylic acid]
99%	79%	66%	O=C(O)c1ccc2c(c1)[C@]1(CC[C@@H](Oc3ncc(F)cc3F)CC1)C(=O)N2 [Example 4, (1r,4r)-4-((3,5-difluoropyridin-2-yl)oxy)-2′-oxo-1′,2′-dihydrospiro[cyclohexane-1,3′-indole]-5′-carboxylic acid]
92%	92%	93%	O=C(O)c1ccc2c(c1)[C@]1(CC[C@@H](Oc3ccccc3C(F)(F)F)CC1)C(=O)N2 [Example 74, (1r,4r)-2′-oxo-4-(2-(trifluoromethyl)phenoxy)-1′,2′-dihydrospiro[cyclohexane-1,3′-indole]-5′-carboxylic acid]
91%	101%	99%	O=C(O)c1ccc2c(c1)[C@]1(CC[C@H](Oc3ccc(Cl)cc3Cl)CC1)C(=O)N2 [Example 15, (1s,4s)-4-(2,4-dichlorophenoxy)-2′-oxo-1′,2′-dihydrospiro[cyclohexane-1,3′-indole]-5′-carboxylic acid]
26%	14%	9%	Cc1cc(Cl)cc(C)c1O[C@H]1CC[C@]2(CC1)C(=O)Nc1ccc(C(=O)O)nc12 [Example 89, (1s,4s)-4-(4-chloro-2,6-dimethylphenoxy)-2′-oxo-1′,2′-dihydrospiro[cyclohexane-1,3′-pyrrolo[3,2-b]pyridine]-5′-carboxylic acid]
101%	97%	91%	Cc1cc(Cl)cc(C)c1O[C@H]1CC[C@@]2(CC1)C(=O)Nc1ccc(C(=O)O)nc12 [Example 94, (1r,4r)-4-(4-chloro-2,6-dimethylphenoxy)-2′-oxo-1′,2′-dihydrospiro[cyclohexane-1,3′-pyrrolo[3,2-b]pyridine]-5′-carboxylic acid]
96%	93%	97%	O=C(O)c1ccc2c(c1)[C@]1(CC[C@@H](Oc3ncc(C(F)(F)F)cc3F)CC1)C(=O)N2 [Example 27, (1r,4r)-4-((3-fluoro-5-(trifluoromethyl)pyridin-2-yl)oxy)-2′-oxo-1′,2′-dihydrospiro[cyclohexane-1,3′-indole]-5′-carboxylic acid]
95%	94%	86%	O=C(O)c1ccc2c(n1)[C@]1(CC[C@@H](Oc3ncc(C(F)(F)F)cc3Cl)CC1)C(=O)N2 [Example 105, (1r,4r)-4-((3-chloro-5-(trifluoromethyl)pyridin-2-yl)oxy)-2′-oxo-1′,2′-dihydrospiro[cyclohexane-1,3′-pyrrolo[3,2-b]pyridine]-5′-carboxylic acid]
98%	90%	87%	N#Cc1cccc(O[C@H]2CC[C@@]3(CC2)C(=O)Nc2ccc(C(=O)O)cc23)c1F [Example 60, (1r,4r)-4-(3-cyano-2-fluorophenoxy)-2′-oxo-1′,2′-dihydrospiro[cyclohexane-1,3′-indole]-5′-carboxylic acid]
86%	86%	81%	O=C(O)c1ccc2c(c1)[C@]1(CC[C@@H](Oc3cc(F)cc(C(F)(F)F)c3)CC1)C(=O)N2 [Example 76, (1r,4r)-4-(3-fluoro-5-(trifluoromethyl)phenoxy)-2′-oxo-1′,2′-dihydrospiro[cyclohexane-1,3′-indole]-5′-carboxylic acid]
98%	99%	95%	Cc1ccc(C#N)c(O[C@H]2CC[C@]3(CC2)C(=O)Nc2ccc(C(=O)O)cc23)n1 [Example 104, (1s,4s)-4-((3-cyano-6-methylpyridin-2-yl)oxy)-2′-oxo-1′,2′-dihydrospiro[cyclohexane-1,3′-indole]-5′-carboxylic acid]
95%	97%	100%	NC(=O)c1cc(Cl)ccc1O[C@H]1CC[C@@]2(CC1)C(=O)Nc1ccc(C(=O)O)cc12 [Example 8, (1r,4r)-4-(2-carbamoyl-4-chlorophenoxy)-2′-oxo-1′,2′-dihydrospiro[cyclohexane-1,3′-indole]-5′-carboxylic acid]
98%	96%	96%	O=C(O)c1ccc2c(c1)[C@]1(CC[C@@H](Oc3cc(C(F)(F)F)ccc3F)CC1)C(=O)N2 [Example 78, (1r,4r)-4-(2-fluoro-5-(trifluoromethyl)phenoxy)-2′-oxo-1′,2′-dihydrospiro[cyclohexane-1,3′-indole]-5′-carboxylic acid]
98%	92%	97%	O=C(O)c1ccc2c(n1)[C@]1(CC[C@@H](Oc3ccc(Cl)cc3)CC1)C(=O)N2 [Example 92, (1r,4r)-4-(4-chlorophenoxy)-2′-oxo-1′,2′-dihydrospiro[cyclohexane-1,3′-pyrrolo[3,2-b]pyridine]-5′-carboxylic acid]
92%	79%	72%	O=C(O)c1ccc2c(c1)[C@]1(CC[C@@H](Oc3cc(Cl)ccn3)CC1)C(=O)N2 [Example 23, (1r,4r)-4-((4-chloropyridin-2-yl)oxy)-2′-oxo-1′,2′-dihydrospiro[cyclohexane-1,3′-indole]-5′-carboxylic acid]
82%	50%	51%	O=C(O)c1ccc2c(c1)[C@]1(CC[C@@H](Oc3cnc4c(c3)CCCO4)CC1)C(=O)N2 [Example 37, (1r,4r)-4-(3,4-dihydro-2H-pyrano[2,3-b]pyridin-6-yloxy)-2′-oxo-1′,2′-dihydrospiro[cyclohexane-1,3′-indole]-5′-carboxylic acid]
100%	99%	98%	Cc1ccc(O[C@H]2CC[C@@]3(CC2)C(=O)Nc2ccc(C(=O)O)cc23)cc1 [Example 43, (1r,4r)-4-(4-methylphenoxy)-2′-oxo-1′,2′-dihydrospiro[cyclohexane-1,3′-indole]-5′-carboxylic acid]
91%	59%	75%	O=C(O)c1ccc2c(n1)[C@]1(CC[C@H](Oc3ccc(F)cc3F)CC1)C(=O)N2 [Example 84, (1s,4s)-4-(2,4-difluorophenoxy)-2′-oxo-1′,2′-dihydrospiro[cyclohexane-1,3′-pyrrolo[3,2-b]pyridine]-5′-carboxylic acid]
97%	84%	81%	O=C(O)c1ccc2c(c1)[C@]1(CC[C@@H](Oc3cc(OCc4ccccc4)ccn3)CC1)C(=O)N2 [Example 30, (1r,4r)-4-((4-(benzyloxy)pyridin-2-yl)oxy)-2′-oxo-1′,2′-dihydrospiro[cyclohexane-1,3′-indole]-5′-carboxylic acid]
